Assay results taken from PMC8246065 (The EMBO Journal, 2021).

Experiments:
[1] = tested on: HeLa inducible NOD1 or NOD2 cells; experiment: ELISA of IL6/IL8 in supernatants of HeLa inducible NOD1 or NOD2 cells; type: cell-based, human; conditions: for IL6 production upon stressor stimulation: Fig 1A-1D; for IL6 production: lipid 10 µM, Appendix Fig S3E,F; for Effect of inhibitor on IL6 production by cytosolic S1P: inhibitor pretreatment, S1P 10 µM with digitonin (5 µg/ml), Appendix Fig S3A-D; for IL6 production in the presence of dynasore: Fig EV1D,E (S2B-S2E in rebuttal)
Method: (§1) To differentiate THP‐1 into macrophage‐like cells, THP‐1 cells were stimulated with 50 ng/ml phorbol 12‐myristate 13‐acetate (Sigma‐Aldrich, P8139) for 24 h and then incubated with fresh medium for another 48 h. […] To induce NOD1 or NOD2 expression, HeLa NOD1 or NOD2 cells were treated with 0.5 µg/ml or 0.25 µg/ml doxycycline for at least 16 h, respectively. All cells have been checked for mycoplasma contamination regularly. Bone marrow‐derived macrophages (BMDMs) were obtained from tibial and femural bones and generated with DMEM containing 20% L929 cell supernatant, 10% FBS, 5% heat‐inactivated horse serum, 1 mM sodium pyruvate, and 2 mM L‐glutamine. For BMDM stimulation experiments, BMDMs were treated with IFN‐γ (20 ng/ml) overnight before stimulation.

NOD1 = target: T1, NOD1 (Homo sapiens, UniProt Q9Y239); experiment: Microscale thermophoresis (MST) binding to purified NOD1-GFP
T1 sequence (Q9Y239 1-953): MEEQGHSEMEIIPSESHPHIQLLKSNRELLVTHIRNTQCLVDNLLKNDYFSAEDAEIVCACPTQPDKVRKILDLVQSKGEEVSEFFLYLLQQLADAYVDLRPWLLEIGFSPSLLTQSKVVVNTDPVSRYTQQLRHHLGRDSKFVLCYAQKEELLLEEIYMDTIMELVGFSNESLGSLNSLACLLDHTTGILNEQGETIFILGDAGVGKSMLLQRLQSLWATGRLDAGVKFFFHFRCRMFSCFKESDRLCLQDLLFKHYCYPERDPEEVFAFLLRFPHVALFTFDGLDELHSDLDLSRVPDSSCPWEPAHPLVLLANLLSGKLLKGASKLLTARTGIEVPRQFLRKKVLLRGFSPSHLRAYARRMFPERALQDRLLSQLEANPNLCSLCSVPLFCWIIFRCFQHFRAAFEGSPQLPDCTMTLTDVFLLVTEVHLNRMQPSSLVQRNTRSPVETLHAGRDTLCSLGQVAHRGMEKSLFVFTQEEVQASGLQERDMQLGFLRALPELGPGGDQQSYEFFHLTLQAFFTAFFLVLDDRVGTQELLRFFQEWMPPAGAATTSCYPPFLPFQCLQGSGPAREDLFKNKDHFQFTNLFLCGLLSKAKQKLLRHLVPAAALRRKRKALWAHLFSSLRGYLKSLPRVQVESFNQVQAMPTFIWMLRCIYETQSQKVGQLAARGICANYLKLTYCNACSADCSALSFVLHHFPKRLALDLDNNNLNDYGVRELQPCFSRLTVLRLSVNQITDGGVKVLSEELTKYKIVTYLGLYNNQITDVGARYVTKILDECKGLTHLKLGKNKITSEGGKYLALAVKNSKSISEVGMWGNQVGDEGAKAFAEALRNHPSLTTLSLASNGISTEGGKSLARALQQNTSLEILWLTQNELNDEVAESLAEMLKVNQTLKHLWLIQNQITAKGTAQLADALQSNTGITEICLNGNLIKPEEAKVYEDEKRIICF
Method: (§2) The lysates were incubated with 2 ml GFP‐Trap agarose at 4°C for 4 h. The agarose was collected with Poly‐Prep columns by gravity flow. […] To remove heat shock proteins, columns were further washed with 50 ml wash buffer III (50 mM Tris–HCl, pH 7.5, 150 mM NaCl, 5 mM MgCl2+, 1 mM ATP). To elute the proteins, the agarose was mixed with 2 ml elution buffer (100 mM Glycine, pH 2.5) for 1 min and the eluted proteins were immediately neutralized with 0.2 ml of 1 M Tris, pH 10.5.

NOD2 = NOD2 (Homo sapiens, UniProt Q9HC29); experiment: Microscale thermophoresis (MST) binding to purified NOD2-GFP
Sequence of NOD2 (Q9HC29 whole entry): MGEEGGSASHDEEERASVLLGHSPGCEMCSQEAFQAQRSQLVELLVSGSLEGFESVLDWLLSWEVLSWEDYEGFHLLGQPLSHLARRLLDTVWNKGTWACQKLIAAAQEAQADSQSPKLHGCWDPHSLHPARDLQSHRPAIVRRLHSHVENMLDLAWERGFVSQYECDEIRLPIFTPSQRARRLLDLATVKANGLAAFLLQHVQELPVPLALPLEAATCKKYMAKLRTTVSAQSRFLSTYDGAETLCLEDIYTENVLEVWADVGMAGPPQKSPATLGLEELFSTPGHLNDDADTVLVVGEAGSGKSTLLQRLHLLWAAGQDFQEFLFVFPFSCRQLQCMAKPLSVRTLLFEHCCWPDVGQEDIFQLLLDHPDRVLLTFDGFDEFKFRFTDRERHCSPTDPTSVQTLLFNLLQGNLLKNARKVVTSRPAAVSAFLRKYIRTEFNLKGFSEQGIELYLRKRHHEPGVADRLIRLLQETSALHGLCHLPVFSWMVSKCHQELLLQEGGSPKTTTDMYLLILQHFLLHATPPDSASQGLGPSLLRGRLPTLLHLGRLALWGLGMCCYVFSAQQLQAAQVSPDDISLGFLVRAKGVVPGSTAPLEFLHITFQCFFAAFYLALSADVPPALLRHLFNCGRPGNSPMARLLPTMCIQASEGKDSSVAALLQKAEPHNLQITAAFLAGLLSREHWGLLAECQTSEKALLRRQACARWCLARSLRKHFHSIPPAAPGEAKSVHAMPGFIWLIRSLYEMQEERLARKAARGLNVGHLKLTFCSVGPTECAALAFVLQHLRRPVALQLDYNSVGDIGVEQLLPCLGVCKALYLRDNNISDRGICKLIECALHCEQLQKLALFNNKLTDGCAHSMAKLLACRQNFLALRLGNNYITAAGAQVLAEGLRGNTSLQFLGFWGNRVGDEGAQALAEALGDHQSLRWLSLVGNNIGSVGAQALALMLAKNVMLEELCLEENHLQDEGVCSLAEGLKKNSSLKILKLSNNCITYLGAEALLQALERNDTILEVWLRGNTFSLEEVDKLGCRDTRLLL
Method: as §2

[2] = tested on: HEK293T NOD1/2 KO cells transfected with NOD1 or NOD2 mutants; experiment: IL8 ELISA of HEK293T cells transfected with NOD1/NOD2 mutants; type: cell-based, human; conditions: for IL8 production in cells expressing LRR-deficient NOD1/2 (NOD1/2∆LRR): 20 µM with digitonin, 20 h
Method: as §1
The mutagenesis was performed with Q5® site‐directed mutagenesis kit (E0554, NEB) according to the manufacturer's instructions. The primers used in this study were as follows: NOD1 E157A F: 5′‐[…]gcg[…]‐3′, NOD1 E157A R: 5′‐[…]‐3′, NOD1 D161A F: 5′‐[…]gcg[…]‐3′, NOD1 D161A R: 5′‐[…]‐3′, NOD1 D203A F: 5′‐[…]gcg[…]‐3′, D203A R: 5′‐[…]‐3′, L218A F: 5′‐[…]gcg[…]‐3′, L218A R: 5′‐[…]‐3′, R237A F: 5′‐[…]gcg[…]‐3′, R237A R: 5′‐[…]‐3′, H257A F: 5′‐[…]gcg[…]‐3′, H257A R: 5′‐[…]‐3′, E267A F: 5′‐[…]gcg[…]‐3′, E267A R: 5′‐[…]‐3′, H290A F: 5′‐[…]gcg[…]‐3′, H290A R: 5′‐[…]‐3′, E306A F: 5′‐[…]gcg[…]‐3′, E306A R: 5′‐[…]‐3′, K324A F: 5′‐[…]gcg[…]‐3′, K324A R: 5′‐[…]‐3′, K328A F: 5′‐[…]gcg[…]‐3′, K328A R: 5′‐[…]‐3′, R340A F: 5′‐[…]gcg[…]‐3′, R340A R: 5′‐[…]‐3′, R344A F: 5′‐[…]gcg[…]‐3′, R344A R: 5′‐[…]‐3′, R350A F: 5′‐[…]gcg[…]‐3′, R350A R: 5′‐[…]‐3′, D372A F: 5′‐[…]gcg[…]‐3′, D372A R: 5′‐[…]‐3′, R373A F: 5′‐[…]gcg[…]‐3′, R373A R: 5′‐[…]‐3′, R399A F: 5′‐[…]gcg[…]‐3′, R399A R: 5′‐[…]‐3′, D423A F: 5′‐[…]gcg[…]‐3′, D423A R: 5′‐[…]‐3′, R435A F: 5′‐5′‐[…]gcg[…]‐3′, R435A R: 5′‐[…]‐3′, Q484A F: 5′‐[…]gcg[…]‐3′, Q484A R: 5′‐[…]‐3′, L495A F: 5′‐[…]gcg[…]‐3′, L495A R: 5′‐[…]‐3′, E514A F: 5′‐[…]gcg[…]‐3′, E514A R: 5′‐[…]‐3′, H517A F: 5′‐[…]gcg[…]‐3′, H517A R: 5′‐[…]‐3′, L540A F: 5′‐[…]gcg[…]‐3′, L540A R: 5′‐[…]‐3′, F544A F: 5′‐[…]gcg[…]‐3′, and F544A R: 5′‐[…]‐3′.

Compound	Effect of inhibitor on IL6 production by cytosolic S1P [1]	IL6 production in the presence of dynasore ([1]; Dynasore 50 µM)	further results
C[C@H]1CCC/C=C/[C@@H]2C[C@H](O)C[C@H]2[C@H](O)/C=C/C(=O)O1 [BFA, brefeldin A]			IL6 production upon stressor stimulation [1]: did not induce IL6 production
CCCCCCCCCCCCC/C=C/[C@@H](O)[C@H](CO)NC(C)=O [C2 ceramide]			IL6 production [1]: did not induce IL6 production
CCCCCCCCCCCCC/C=C/[C@@H](O)[C@H](CO)NC(=O)CCCCCCCCCCCCCCC [C16 ceramide]			Interaction with NOD1 by MST (NOD1; Fig EV5B): not detected; Interaction with NOD2 by MST (NOD2; Fig EV5C): not detected; IL6 production [1]: did not induce IL6 production
Cc1cc(CN)cc(C)c1NC(=O)c1ccc(-c2cc(Cl)ccc2Cl)o1 [CYM50358]	failed to block		
O=C(N/N=C/c1ccc(O)c(O)c1)c1cc2ccccc2cc1O [Dynasore]			Effect of endocytosis inhibition on IL6 production in response to stress stimulations ([1]; Dynasore 50 µM): not blocked
CCCCCCCCc1ccc(CCC(N)(CO)CO)cc1 [FTY720]	failed to block		
CC(C)(C)S(=O)(=O)c1ccc2nccc(Nc3n[nH]c4ccc(F)cc34)c2c1 [GSK583]	abolished		
Cc1nn(C)c2nc(NNC(=O)Nc3c(Cl)cncc3Cl)cc(C(C)C)c12 [JTE013]	failed to block		
CC(=O)N[C@@H]1[C@@H](O[C@H](C)C(=O)N[C@@H](C)C(=O)N[C@H](CCC(=O)O)C(N)=O)[C@H](O)[C@@H](CO)O[C@H]1O [MDP]		impaired	Binding affinity of NOD2 for MDP in the presence or absence of S1P (NOD2; Fig 6H, S1P 2 µM): not affected; IL8 production in cells expressing LRR-deficient NOD1/2 (NOD1/2∆LRR) [2]: not; IL8 production / activation in HEK293T cells expressing NOD2 1007fs ([2]; 20 µM, 48 h, digitonin): unresponsive
CC(=O)c1ncc([C@@H](O)[C@H](O)[C@H](O)CO)[nH]1 [THI]	higher IL6 production		
CCCCCCCCc1cccc(NC(=O)[C@H](N)COP(=O)(O)O)c1 [VPC23019]	failed to block		
CCCCCCc1cccc(NC(=O)[C@H](N)CCP(=O)(O)O)c1 [W146]	failed to block		
CCCCC[C@H](CC(=O)NO)C(=O)N[C@H](C(=O)N1CCC[C@H]1CO)C(C)C [actinonin]		higher IL6 production	
C=C1[C@@H](C)[C@H]2[C@H](Cc3ccccc3)NC(=O)[C@]23[C@H](OC(C)=O)/C=C/[C@@](C)(O)C(=O)[C@@H](C)C/C=C/[C@H]3[C@@H]1O [cytochalasin D]		higher IL6 production	
N[C@H](CCC(=O)N[C@H](CCC[C@H](N)C(=O)O)C(=O)O)C(=O)O [iE-DAP]		impaired	Binding affinity of NOD1 for iE-DAP in the presence or absence of S1P (NOD1; Fig 6G, S1P 2 µM): not affected; IL8 production in cells expressing LRR-deficient NOD1/2 (NOD1/2∆LRR) [2]: not; Activation (IL8) of NOD1 K328A or H517A ([2]; Fig EV5H): activated
CC[C@@]1([C@@H]2O[C@@H]([C@H]3O[C@@](O)(CO)[C@H](C)C[C@@H]3C)C[C@@H]2C)CC[C@H]([C@]2(C)CC[C@]3(C[C@H](O)[C@@H](C)[C@@H]([C@@H](C)[C@@H](OC)[C@H](C)C(=O)O)O3)O2)O1 [monensin]			IL6 production upon stressor stimulation [1]: did not induce IL6 production
COC(=O)Nc1nc2ccc(C(=O)c3cccs3)cc2[nH]1 [nocodazole]		higher IL6 production	
CC(=O)O[C@H]1C(=O)[C@@]2(C)[C@H]([C@H](OC(=O)c3ccccc3)[C@]3(O)C[C@H](OC(=O)[C@H](O)[C@@H](NC(=O)c4ccccc4)c4ccccc4)C(C)=C1C3(C)C)[C@]1(OC(C)=O)CO[C@@H]1C[C@@H]2O [paclitaxel]		higher IL6 production	
CCCCCCCCCCCCC/C=C/[C@@H](O)[C@@H](N)CO [sphingosine]			IL6 production [1]: did not induce IL6 production
pertussis toxin	failed to block		
